# Laboratory results taken from ChEMBL document CHEMBL1142667, “Modulation of MRP-1-mediated multidrug resistance by indomethacin analogues” (J Med Chem, 2005).
# Activity calls are given as the source filed them. The rule behind the calls is not given here.
# Tests used:
# Format in all cases: functional, cell-based
# Settings in all cases: Homo sapiens
# [1] = system: T98G; test: Effect of compound (10 uM) on doxorubicin-induced cytotoxicity towards T98G cell line expressing multidrug resistance associated protein 1 (MRP-1); Active
# [2] = system: T98G; test: Effect of compound (10 uM) on doxorubicin-induced cytotoxicity towards T98G cell line expressing multidrug resistance associated protein 1 (MRP-1); Inactive
# [3] = system: T98G; test: Effect of compound (10 uM) on doxorubicin-induced cytotoxicity towards T98G cell line expressing multidrug resistance associated protein 1 (MRP-1); Very active
# [4] = system: T98G; test: Effect of compound (10 uM) on doxorubicin-induced cytotoxicity towards T98G cell line expressing multidrug resistance associated protein 1 (MRP-1)
# [5] = system: T98G; test: Effect of compound (10 uM) on doxorubicin-induced cytotoxicity towards T98G cell line expressing multidrug resistance associated protein 1 (MRP-1); Toxic
SMILES,Effect [1],Effect [2],further results
COc1ccc2c(c1)c(CCC(=O)O)c(C)n2C(=O)c1ccc(N(C)C)cc1,Active,–,–
Cc1c(CCCC(=O)O)c2cc(S(=O)(=O)O)ccc2n1C(=O)c1ccc(-c2ccccc2)cc1,–,inactive,–
O=C(c1ccco1)n1c2c(c3cc(S(=O)(=O)O)ccc31)CCCC2,–,inactive,–
O=C(O)c1ccc2c(c1)c1c(n2C(=O)c2ccc(Cl)cc2)CCCC1,–,–,Effect [3]: Active
COc1ccc2c(c1)c(CCCC(=O)O)c(C)n2C(=O)c1ccccn1,Active,–,–
CCCCCCCCCCc1c(C)n(C(=O)c2ccc(Cl)cc2)c2ccc(S(=O)(=O)O)cc12,–,inactive,–
O=C(c1ccccn1)n1c2c(c3cc(S(=O)(=O)O)ccc31)CCCC2,Active,–,–
COc1ccc2c(c1)c(CC(=O)O)c(C)n2C(=O)c1ccc(C)cc1,Active,–,–
COc1ccc2c(c1)c(CCC(=O)O)c(C)n2C(=O)c1ccc(Br)cc1,–,–,Effect [3]: Active
CCCCCCCCCCc1c(C)n(C(=O)c2ccc(Cl)cc2)c2ccc(C(=O)O)cc12,Active,–,–
Cc1ccc2c(c1)c(CCC(=O)O)c(C)n2C(=O)c1ccc(Cl)cc1,–,–,Effect [3]: Active
COc1ccc2c(c1)c(CC(=O)O)c(C)n2C(=O)c1ccc(Br)cc1,–,–,Effect [3]: Active
COc1ccc2c(c1)c(CCC(=O)O)c(C)n2C(=O)c1ccc(Cl)cc1,–,–,Effect [3]: Active
Cc1c(CCCC(=O)O)c2cc(C(=O)O)ccc2n1C(=O)c1ccc(Cl)cc1,Active,–,–
COc1ccc2c(c1)c(CC(=O)O)c(C)n2C(=O)c1ccc(F)cc1,Active,–,–
O=C(c1ccc(-c2ccccc2)cc1)n1c2c(c3cc(S(=O)(=O)O)ccc31)CCCC2,Active,–,–
O=C(c1ccc(-c2ccccc2)cc1)n1c2c(c3cc(S(=O)(=O)O)ccc31)CSCC2,Active,–,–
COc1ccc2c(c1)c(CC(=O)O)c(C)n2C(=O)c1ccc(Cl)cc1,Active,–,–
COc1ccc2c(c1)c(CCCC(=O)O)c(C)n2C(=O)c1ccc(Br)cc1,–,–,Effect [3]: Active
COc1ccc2c(c1)c(CCC(=O)O)c(C)n2C(=O)c1ccc(-c2ccccc2)cc1,–,–,Effect [4]: Active

SMILES,Effect [1],Effect [2],further results
Cc1c(Cc2ccccc2)c2cc(S(=O)(=O)O)ccc2n1C(=O)c1ccco1,–,–,Effect [5]: Toxic
CCCCCCCCCCc1c(C)n(C(=O)c2ccco2)c2ccc(S(=O)(=O)O)cc12,–,inactive,–
Cc1ccc2c(c1)c(CCCC(=O)O)c(C)n2C(=O)c1ccc(Cl)cc1,–,–,Effect [3]: Active
COc1ccc2c(c1)c(CCCC(=O)O)c(C)n2C(=O)c1cccs1,Active,–,–
CCCCCCCCCCc1c(C)n(C(=O)c2ccc(-c3ccccc3)cc2)c2ccc(S(=O)(=O)O)cc12,–,–,Effect [5]: Toxic
O=C(c1ccccn1)n1c2c(c3cc(S(=O)(=O)O)ccc31)CSCC2,Active,–,–
Cc1c(CCCC(=O)O)c2cc(S(=O)(=O)O)ccc2n1C(=O)c1ccc(Cl)cc1,–,–,Effect [5]: Toxic
O=C(c1ccc(Cl)cc1)n1c2c(c3cc(S(=O)(=O)O)ccc31)CCCC2,–,inactive,–
COc1ccc2c(c1)c(CC(=O)O)c(C)n2C(=O)c1ccco1,–,inactive,–
CN1CCc2c(c3cc(S(=O)(=O)O)ccc3n2C(=O)c2ccc(-c3ccccc3)cc2)C1,–,inactive,–
O=C(c1ccccc1)N1CCc2c(c3cc(S(=O)(=O)O)ccc3n2C(=O)c2ccc(Cl)cc2)C1,Active,–,–
COC(=O)CCc1c(C)n(C(=O)c2ccco2)c2ccc(S(=O)(=O)O)cc12,–,inactive,–
Cc1c(CCC(=O)O)c2cc(S(=O)(=O)O)ccc2n1C(=O)c1ccco1,–,inactive,–
O=C(O)c1ccc2c(c1)c1c(n2C(=O)c2ccc(Cl)cc2)CCSC1,–,–,Effect [3]: Active
Cc1c(Cc2ccc(O)cc2)c2cc(S(=O)(=O)O)ccc2n1C(=O)c1ccc(Cl)cc1,Active,–,–
O=C(c1ccccc1)N1CCc2c(c3cc(S(=O)(=O)O)ccc3n2C(=O)c2ccc(-c3ccccc3)cc2)C1,Active,–,–
COc1ccc2c(c1)c(CC(=O)O)c(C)n2C(=O)c1ccc(N(C)C)cc1,Active,–,–
CCc1c(C)n(C(=O)c2ccc(Cl)cc2)c2ccc(S(=O)(=O)O)cc12,–,inactive,–
COC(=O)CCCc1c(C)n(C(=O)c2ccco2)c2ccc(S(=O)(=O)O)cc12,–,inactive,–
CCc1c(C)n(C(=O)c2ccco2)c2ccc(S(=O)(=O)O)cc12,–,inactive,–

SMILES,Effect [1],Effect [2],further results
O=C(c1ccc(Cl)cc1)n1c2c(c3cc(S(=O)(=O)O)ccc31)CCCCCC2,–,inactive,–
Cc1c(Cc2ccccc2)c2cc(S(=O)(=O)O)ccc2n1C(=O)c1ccc(Cl)cc1,–,inactive,–
O=C(c1ccccc1)N1CCc2c(c3cc(S(=O)(=O)O)ccc3n2C(=O)c2ccco2)C1,–,inactive,–
COc1ccc2c(c1)c(CC(=O)O)c(C)n2C(=O)c1ccc(-c2ccccc2)cc1,Active,–,–
Cc1c(CCCC(=O)O)c2cc(S(=O)(=O)O)ccc2n1C(=O)c1ccco1,–,inactive,–
CCOC(=O)CCCc1c(C)n(C(=O)c2ccc(N(C)C)cc2)c2ccc(OC)cc12,Active,–,–
O=C(c1ccc(Cl)cc1)n1c2c(c3cc(S(=O)(=O)O)ccc31)CSCC2,–,inactive,–
Cc1c(CC(=O)O)c2cc(Br)ccc2n1C(=O)c1ccco1,–,inactive,–
CCOC(=O)CCc1c(C)n(C(=O)c2cccs2)c2ccc(OC)cc12,–,–,Effect [5]: Toxic
COC(=O)CCCc1c(C)n(C(=O)c2ccc(Cl)cc2)c2ccc(S(=O)(=O)O)cc12,–,inactive,–
Cc1c(Cc2ccc(O)cc2)c2cc(S(=O)(=O)O)ccc2n1C(=O)c1ccc(-c2ccccc2)cc1,–,inactive,–
Cc1c(Cc2ccccc2)c2cc(S(=O)(=O)O)ccc2n1C(=O)c1ccc(-c2ccccc2)cc1,–,inactive,–
COc1ccc2c(c1)c(CCCC(=O)O)c(C)n2C(=O)c1ccc(Cl)cc1,–,–,Effect [3]: Active
COc1ccc2c(c1)c(CCC(=O)O)c(C)n2C(=O)c1ccccn1,–,inactive,–
COc1ccc2c(c1)c(CC(=O)O)c(C)n2C(=O)c1cccs1,Active,–,–
COc1ccc2c(c1)c(CCCC(=O)O)c(C)n2C(=O)c1ccc(N(C)C)cc1,Active,–,–
COc1ccc2c(c1)c(CC(=O)O)c(C)n2C(=O)c1ccccn1,–,inactive,–
O=C(c1ccco1)n1c2c(c3cc(S(=O)(=O)O)ccc31)CSCC2,–,inactive,–
CN1CCc2c(c3cc(S(=O)(=O)O)ccc3n2C(=O)c2ccc(Cl)cc2)C1,–,–,Effect [5]: Toxic
